# Legend:
# Settings in all cases: 20 DAT
# AMBEL = assay: Greenhouse preemergence herbicidal activity; type: in vivo, Ambrosia elatior
# Experimental: (§1) The test plants have been seeded, separately for each species, in plastic containers in sandy loamy soil containing 5% of organic matter.
# (§2) The containers were irrigated gently to promote germination and growth and subsequently covered with transparent plastic hoods until the plants had rooted.
# (§3) The plants have been cultivated due to their individual requirements at 10-25° C. and 20-35° C.
# (§4) The plants were irrigated due to their necessity.
# (§5) The racemic mixture (±)-2-exo-(2-Methylbenzyloxy)-1-methyl-4-isopropyl-7-oxabicyclo[2.2.1]heptane was used as herbicide A and formulated as emulsifiable concentrates with an active ingredient concentration of 50 g/l, 100 g/l or 750 g/l respectively.
# (§6) Dimethenamid-P was used as emulsifiable concentrate (EC) formulation having an active ingredient concentration of 720 g/l.
# (§7) In the following experiments, the herbicidal activity for the individual herbicidal compositions (solo and mixture applications) was assessed 20 days after treatment (DAT). […]
# (§8) The value E corresponds to the effect (plant damage or injury) which is to be expected if the activity of the individual compounds is additive. If the observed effect is higher than the value E calculated according to the Colby equation, a synergistic effect is present.
# GALAP = assay: Greenhouse preemergence herbicidal activity; type: in vivo, Galium aparine
# Experimental: as §1, §2, §3, §4, §5, §6
# (§9) In the following experiments, the herbicidal activity for the individual herbicidal compositions (solo and mixture applications) was assessed 20 days after treatment (DAT).
# (§10) The evaluation for the damage on undesired weeds caused by the chemical compositions was carried out using a scale from 0 to 100%, compared to the untreated control plants. Here, 0 means no damage and 100 means complete destruction of the plants.
# (§11) E=X+Y−(X·Y/100) where X=effect in percent using herbicide A at an application rate a; • Y=effect in percent using herbicide B at application rate b; • E=expected effect (in %) of herbicide A+herbicide B at application rates a+b.
# as §8
# SORHA = assay: Greenhouse preemergence herbicidal activity; type: in vivo, Sorghum halepense
# Experimental: as §1, §2, §3, §4, §5, §6, §9, §10, §11, §8
# ANTAR [1] = assay: Greenhouse postemergence herbicidal activity; type: in vivo, Anthemis arvensis
# Experimental: as §1
# (§12) For the post emergence treatment, the plants were first grown to the 2 leaf station (GS 12). Here, the herbicidal compositions were suspended or emulsified in water as distribution medium and sprayed using finely distributing nozzles.
# as §3, §4, §5, §6, §9, §10, §11, §8
# THLAR = assay: Greenhouse preemergence herbicidal activity; type: in vivo, Thlaspi arvense
# Experimental: as §1, §2, §3, §4, §5, §6, §9, §10, §11, §8
# BRSNW = assay: Greenhouse postemergence herbicidal activity; type: in vivo, Brassica napus
# Experimental: as §1, §12, §3, §4, §5, §6, §7, §8
# HELAN = assay: Greenhouse preemergence herbicidal activity; type: in vivo, Helianthus annuus
# Experimental: as §1, §2, §3, §4, §5, §6, §7, §8
# SSYOF = assay: Greenhouse preemergence herbicidal activity; type: in vivo, Sisymbrium officinale
# Experimental: as §1, §2, §3, §4, §5, §6, §9, §10, §11, §8
# AVEFA = assay: Greenhouse preemergence herbicidal activity; type: in vivo, Avena fatua
# Experimental: as §1, §2, §3, §4, §5, §6, §9, §10, §11, §8
# ABUTH = assay: Greenhouse preemergence herbicidal activity; type: in vivo, Abutilon theophrasti
# Experimental: as §1, §2, §3, §4, §5, §6, §9, §10, §11, §8
# ANTAR [2] = assay: Greenhouse preemergence herbicidal activity; type: in vivo, Anthemis arvensis
# Experimental: as §1, §2, §3, §4, §5, §6, §9, §10, §11, §8
# POLCO = assay: Greenhouse preemergence herbicidal activity; type: in vivo, Polygonum convolvulus
# Experimental: as §1, §2, §3, §4, §5, §6, §9, §10, §11, §8
# ALOMY = assay: Greenhouse preemergence herbicidal activity; type: in vivo, Alopecurus myosuroides
# Experimental: as §1, §2, §3, §4, §5, §6, §7, §8
# [3] = solo Dimethenamid-P 125 g ai/ha
# [4] = solo Dimethenamid-P 62.5 g ai/ha
# [5] = solo Dimethenamid-P 150 g ai/ha
# [6] = solo Dimethenamid-P 250 g ai/ha
# [7] = solo Dimethenamid-P 300 g ai/ha
# [8] = solo Dimethenamid-P 500 g ai/ha
# [9] = solo Dimethenamid-P 37.5 g ai/ha
compound,measurement,setting,value
(±)-2-exo-(2-Methylbenzyloxy)-1-methyl-4-isopropyl-7-oxabicyclo[2.2.1]heptane [herbicide A],herbicidal activity,AMBEL; solo herbicide A 62.5 g ai/ha,0%
same,herbicidal activity,GALAP; solo herbicide A 31.25 g ai/ha,0%
same,herbicidal activity,GALAP; solo herbicide A 125 g ai/ha,20%
same,herbicidal activity,GALAP; solo herbicide A 250 g ai/ha,65%
same,herbicidal activity,GALAP; solo herbicide A 500 g ai/ha,80%
same,herbicidal activity,SORHA; solo herbicide A 62.5 g ai/ha,80%
same,herbicidal activity,SORHA; solo herbicide A 125 g ai/ha,90%
same,herbicidal activity,ANTAR [1]; solo herbicide A 62.5 g ai/ha,0%
same,herbicidal activity,ANTAR [1]; solo herbicide A 125 g ai/ha,0%
same,herbicidal activity,ANTAR [1]; solo herbicide A 250 g ai/ha,40%
same,herbicidal activity,ANTAR [1]; solo herbicide A 500 g ai/ha,65%
same,herbicidal activity,THLAR; solo herbicide A 62.5 g ai/ha,65%
same,herbicidal activity,THLAR; solo herbicide A 125 g ai/ha,75%
same,herbicidal activity,THLAR; solo herbicide A 500 g ai/ha,90%
same,herbicidal activity,BRSNW; solo herbicide A 125 g ai/ha,0%
same,herbicidal activity,HELAN; solo herbicide A 125 g ai/ha,0%
same,herbicidal activity,SSYOF; solo herbicide A 31.25 g ai/ha,0%
same,herbicidal activity,SSYOF; solo herbicide A 62.5 g ai/ha,0%
same,herbicidal activity,SSYOF; solo herbicide A 125 g ai/ha,50%
same,herbicidal activity,AVEFA; solo herbicide A 31.25 g ai/ha,0%
same,herbicidal activity,AVEFA; solo herbicide A 125 g ai/ha,50%
same,herbicidal activity,ABUTH; solo herbicide A 62.5 g ai/ha,55%
same,herbicidal activity,ABUTH; solo herbicide A 125 g ai/ha,65%
same,herbicidal activity,ANTAR [2]; solo herbicide A 31.25 g ai/ha,0%
same,herbicidal activity,ANTAR [2]; solo herbicide A 250 g ai/ha,40%
same,herbicidal activity,ANTAR [2]; solo herbicide A 500 g ai/ha,65%
same,herbicidal activity,POLCO; solo herbicide A 31.25 g ai/ha,0%
same,herbicidal activity,POLCO; solo herbicide A 62.5 g ai/ha,0%
same,herbicidal activity,POLCO; solo herbicide A 125 g ai/ha,0%
same,herbicidal activity,POLCO; solo herbicide A 250 g ai/ha,0%
same,herbicidal activity,ALOMY; solo herbicide A 31.25 g ai/ha,85%
"COC[C@H](C)N(C(=O)CCl)c1c(C)csc1C [Dimethenamid-P, (S)-2-chloro-N-(2,4-dimethyl-3-thienyl)-N-(2-methoxy-1-methylethyl)acetamide]",herbicidal activity,AMBEL; [3],35%
same,herbicidal activity,GALAP; [4],20%
same,herbicidal activity,GALAP; [5],70%
same,herbicidal activity,GALAP; [6],75%
same,herbicidal activity,GALAP; [7],75%
same,herbicidal activity,GALAP; [8],80%
same,herbicidal activity,SORHA; [9],30%
same,herbicidal activity,SORHA; solo Dimethenamid-P 75 g ai/ha,70%
same,herbicidal activity,ANTAR [1]; [9],0%
same,herbicidal activity,ANTAR [1]; solo Dimethenamid-P 75 g ai/ha,0%
same,herbicidal activity,ANTAR [1]; [5],35%
same,herbicidal activity,ANTAR [1]; [7],45%
same,herbicidal activity,THLAR; [3],40%
same,herbicidal activity,THLAR; [6],70%
same,herbicidal activity,THLAR; [8],90%
same,herbicidal activity,BRSNW; solo Dimethenamid-P 75 g ai/ha,20%
same,herbicidal activity,HELAN; [8],30%
same,herbicidal activity,SSYOF; [4],0%
same,herbicidal activity,SSYOF; [3],70%
same,herbicidal activity,SSYOF; [6],98%
same,herbicidal activity,AVEFA; [9],0%
same,herbicidal activity,AVEFA; [4],0%
same,herbicidal activity,AVEFA; solo Dimethenamid-P 75 g ai/ha,0%
same,herbicidal activity,AVEFA; [3],25%
same,herbicidal activity,ABUTH; [3],10%
same,herbicidal activity,ABUTH; [6],25%
same,herbicidal activity,ANTAR [2]; [9],20%
same,herbicidal activity,ANTAR [2]; [4],75%
same,herbicidal activity,ANTAR [2]; solo Dimethenamid-P 75 g ai/ha,50%
same,herbicidal activity,ANTAR [2]; [3],95%
same,herbicidal activity,ANTAR [2]; [5],85%
same,herbicidal activity,ANTAR [2]; [6],98%
same,herbicidal activity,ANTAR [2]; [7],90%
same,herbicidal activity,POLCO; [9],0%
same,herbicidal activity,POLCO; [4],0%
same,herbicidal activity,POLCO; solo Dimethenamid-P 75 g ai/ha,0%
same,herbicidal activity,POLCO; [3],0%
same,herbicidal activity,POLCO; [6],30%
same,herbicidal activity,POLCO; [8],60%
same,herbicidal activity,ALOMY; [4],25%

# Reference: patent US10813356B2, “Herbicidal composition comprising cinmethylin and dimethenamid” (BASF Agro B.V., priority 2015, dated 2020)
